In the assay the target is Diamine oxidase AOC1 (Homo sapiens). Description: Inhibition of recombinant human DAO using putrescine as substrate preincubated with enzyme for 30 mins followed by substrate addition and measured every 2.5 mins for 30 mins by Amplex-Red oxidation assay.

Molecules are shown by their SMILES.

In the case of `Cc1c(-c2cccc(S(=O)(=O)N(C)C)c2)c2ccccc2n1CC(F)=CCN`, the IC50 (usually the concentration that inhibits the measured activity by half) is 3.98 µM. Consider `Cc1c(-c2cccc(S(=O)(=O)N(C)C)c2)c2cc(C(=O)O)ccc2n1CC(F)=CCN`, for which the IC50 was over 10 µM.

The record behind these values is BindingDB's records for doi:10.1021/acs.jmedchem.9b01283 (Pharmaxis, 2019).
